Columns and labels:
[1] = molecular target: T1, recombinant human 5-HT2A receptor (Homo sapiens, UniProt P28223); experiment: Radioligand binding, [3H]Ketanserin competition, 5-HT2A; settings: [3H]Ketanserin displacement, membranes of CHO-K1 cells, pH 7.4, 32° C.; read-out: pKi for 5-HT2A (converted)
T1 construct: expressed in transfected cells; membranes)
Method: (§1) The binding activity of compounds of this invention in vitro was determined as follows. Duplicate determinations of 5-HT6 ligand affinity were made by competing for binding of [^3H]LSD in cell membranes derived from HEK293 cells stably expressing recombinant human 5-HT6 receptor. Duplicate determinations of 5-HT2A ligand affinity were made by competing for binding of [^3H]Ketanserin (3-(2-(4-(4-fluorobenzoyl)piperidinol)ethyl)-2,4(1H,3H)-quinazolinedione) in cell membranes derived from CHO-K1 cells stably expressing recombinant human 5-HT2A receptor. Membranes were prepared from HEK 293 cell lines by the method described by Monsma et al., Molecular Pharmacology, Vol. 43 pp. 320-327 (1993), and from CHO-K1 cell lines as described by Bonhaus et al., Br J Pharmacol. Jun; 115 (4):622-8 (1995).
(§2) For estimation of affinity at the 5-HT6 receptor, all determinations were made in assay buffer containing 50 mM Tris-HCl, 10 mM MgSO4, 0.5 mM EDTA, 1 mM ascorbic acid, pH 7.4 at 37° C., in a 250 microliter reaction volume. […]
(§3) Assay tubes containing [^3H] […] LSD or [^3H]Ketanserin were determined as radioactive counts per minute using Packard TopCount.
(§4) Displacement of [^3H]LSD or [^3H]Ketanserin from the binding sites was quantified by fitting concentration-binding data to a 4-parameter logistic equation: […]

[2] = molecular target: T2, recombinant human 5-HT6 receptor (Homo sapiens, UniProt P50406); experiment: Radioligand binding, [3H]LSD competition, 5-HT6; settings: [3H]LSD displacement, membranes of HEK293 cells, pH 7.4, 37° C.; read-out: pKi for 5-HT6 (converted)
T2 construct: expressed in transfected cells; membranes)
T2 sequence (P50406 whole entry): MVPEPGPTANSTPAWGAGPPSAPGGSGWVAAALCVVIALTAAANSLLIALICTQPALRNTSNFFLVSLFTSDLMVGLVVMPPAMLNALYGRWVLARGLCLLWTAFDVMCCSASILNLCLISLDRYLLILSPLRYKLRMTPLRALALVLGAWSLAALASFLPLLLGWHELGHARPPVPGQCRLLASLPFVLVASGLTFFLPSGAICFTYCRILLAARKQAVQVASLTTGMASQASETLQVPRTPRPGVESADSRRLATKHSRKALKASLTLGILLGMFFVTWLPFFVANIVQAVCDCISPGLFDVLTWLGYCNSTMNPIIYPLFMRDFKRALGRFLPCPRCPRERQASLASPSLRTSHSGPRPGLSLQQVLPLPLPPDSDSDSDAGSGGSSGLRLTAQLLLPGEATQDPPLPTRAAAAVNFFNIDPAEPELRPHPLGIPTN
Method: as §1, §2, §3, §4

T1 sequence (P28223 whole entry): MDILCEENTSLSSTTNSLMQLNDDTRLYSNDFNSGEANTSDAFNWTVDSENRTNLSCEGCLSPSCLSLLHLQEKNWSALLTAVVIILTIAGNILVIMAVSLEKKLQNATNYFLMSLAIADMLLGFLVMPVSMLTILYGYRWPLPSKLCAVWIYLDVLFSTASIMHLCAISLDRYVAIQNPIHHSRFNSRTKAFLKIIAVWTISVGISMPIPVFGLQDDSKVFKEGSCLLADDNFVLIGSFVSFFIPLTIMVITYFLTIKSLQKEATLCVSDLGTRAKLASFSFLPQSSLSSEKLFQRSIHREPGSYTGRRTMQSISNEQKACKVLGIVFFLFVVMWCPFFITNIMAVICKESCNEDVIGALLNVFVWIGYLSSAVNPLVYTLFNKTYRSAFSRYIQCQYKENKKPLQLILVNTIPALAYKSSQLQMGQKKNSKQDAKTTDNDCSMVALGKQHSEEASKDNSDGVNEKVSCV

- Ki [1]: ~17.4 nM
- Ki [2]: ~0.302 nM
Structure (SMILES): CN1CCN(C2CCCc3cc(S(=O)(=O)c4ccccc4)ccc32)CC1 (centres unmarked) [Compound 11, 1-(6-Benzenesulfonyl-1,2,3,4-tetrahydro-naphthalen-1-yl)-4-methyl-piperazine]

— US7473690B2, “Tetralin and indane derivatives and uses thereof” (Roche Palo Alto LLC, priority 2004, dated 2009)
